The results in this text go back to patent publication US9605163B2, “Aminoalcohol compounds and their use as zero or low VOC additives for paints and coatings” (ANGUS CHEMICAL COMPANY, priority 2011, dated 2017).

Data set [1] in a line: pKa determination by titration with H2SO4 in water. In kind it is physicochemical. Conditions: 0.5 N H2SO4, water as solvent. Here is the method:
pKa. pKa values are determined by titration using 0.5 NH2SO4 as titrant with water as solvent. Duplicate analyses are performed.

Data set [2] can be described thus: Freeze-thaw cycles of paint samples, Krebs Stormer viscosity. The note with it: for Initial Viscosity (KU): paint of Table 5, additive post-added at 2 wt %, before freeze-thaw. Here is the method: The paint formulations are prepared using F/T agent 1 as shown by structures below. The octanol water partition coefficient is calculated using the method of Moriguchi et al., Chem. Pharm. Bull. 40(1), 127-130 (1992). The calculated octanol-water partition coefficient for F/T-1 is 0.69. […] Paint samples are frozen at −18° C. for 17 hours and then thawed at 25° C. for 7 hours. This constitutes 1 complete freeze-thaw cycle. Viscosities are measured after each freeze-thaw cycle using a Krebs Stormer Viscometer from Sheen at room temperature. The viscosity is measured in Krebs unit (KU). The results of freeze-thaw cycles on paint samples that contain a zero-VOC compound of the invention as a post-add are listed in the Table 6. The post-add compound is mixed at 2 wt % in the paint samples. The same paint formulation is used in preparing all the samples. The paint sample without any post-add is designated as “Blank.”
The KU values below 150 as reported in Table 9 are considered acceptable, and all the values (other than that for the Blank) reported are considered very acceptable.

Data set [3] in a line: VOC according to ASTM D6886-rev gas chromatography method. Format: physicochemical. The note with it: for Percent VOC measured on the crude amine sample: ASTM D6886-rev, value attributed to impurities / residual amine; for VOC classification according to ASTM D6886-rev protocol: pure compound. Here is the method:
“Zero or low VOC compound” and like terms mean that a particular aminoalcohol compound of the invention passes the criteria set forth by one or more gas chromatography methods, such as ASTM D6886-rev method, ISO 11890 or GB 18581. ASTM D6886-rev method is preferred.
VOC. VOC properties are tested according to the ASTM D6886-rev method.

Setting [4] is: additive 2 wt %, cycle = −18° C. 17 hours, 25° C. 7 hours.

In general, pKa refers to the negative logarithm of the acid dissociation constant. Lower therefore signals a stronger acid or weaker base. In data set [1], `OCCN(CCO)C1CCCCC1O` (stereo not shown) [DEA-CyHO, 2,2′-((2-hydroxycyclohexyl)azanediyl)diethanol] displayed a pKa of 8.6.
The same measure, in the same setting: as for `CC(O)CNC(CO)(CO)CO` (stereo not shown) [TA-1PO, 2-(hydroxymethyl)-2-((2-hydroxypropyl)amino)propane-1,3-diol], the figure is 8.
Turning to `CC(C)(C)CC(C)(C)N(CC(O)CO)CC(O)CO` (stereo not shown) [F/T Agent 1], in data set [2] (setting [4]), the “Viscosity after Freeze-Thaw cycles (KU), 1st cycle” value worked out at 92.6 KU; the “Viscosity after Freeze-Thaw cycles (KU), 2nd cycle” value stood at 100.8 KU; the “Viscosity after Freeze-Thaw cycles (KU), 3rd cycle” value is listed as 103.1 KU; the “Viscosity after Freeze-Thaw cycles (KU), 4th cycle” value was determined as 104.2 KU. The “Viscosity after Freeze-Thaw cycles (KU), 5th cycle” value in data set [2] (setting [4]) is recorded as 105.3 KU. Also, the “Freeze-thaw survival of paint samples” value in data set [2] (additive as post-add) is given as “survive five freeze-thaw cycles”. Moreover, in data set [2], the “Initial Viscosity (KU)” value is 85.2 KU.
On to `CCC(O)CNC(CC)(CO)CO` (stereo not shown) [AEPD-1BO, 2-ethyl-2-((2-hydroxybutyl)amino)propane-1,3-diol], for which, in data set [1], the pKa was 8.7.
Regarding `OCCOCCO` [Diethylene Glycol, diethylene glycol, reference compound], the “Viscosity after Freeze-Thaw cycles (KU), 5th cycle” value in data set [2] (setting [4]) is reported as 98 KU. Moreover, in data set [2], the “Initial Viscosity (KU)” value worked out at 91.0 KU.
In data set [1], `CC(C)(C)CC(C)(C)N(CC(O)CO)CC(O)CO` (stereo not shown) [3,3′-((2,4,4-trimethylpentan-2-yl)azanediyl)bis(propane-1,2-diol)] showed a pKa of 9. In data set [3], the “Percent VOC measured on the crude amine sample” value stood at 3.6% and the “VOC classification according to ASTM D6886-rev protocol” value was “zero VOC”.
In data set [1], `CC(C)OCC(O)CNC(CO)(CO)CO` (stereo not shown) [TA-IPM, 2-((2-hydroxy-3-isopropoxypropyl)amino)-2-(hydroxymethyl)propane-1,3-diol] registered a pKa of 7.8. Besides, in data set [3], the “Percent VOC measured on the crude amine sample” value is 8.7% and the “VOC classification according to ASTM D6886-rev protocol” value was “zero VOC”.
On to `CCC(O)CN(CC(O)CC)C(C)(C)CO` (stereo not shown) [AMP-2BO, 1,1′-((1-hydroxy-2-methylpropan-2-yl)azanediyl)bis(butan-2-ol)], for which the pKa in data set [1] worked out at 9.1.
